From patent publication US20060210500A1, “Formulations” (MERCK PATENT GMBH, priority 2003, published 2006)

How the values were obtained:
[1] = over the entire pH range; cited from earlier work
[2] = tested on: Pseudomonas aeruginosa ATCC 9027; experiment: challenge test, germ count by Agar plates method; type: cell-based; conditions: 8% aqueous suspension
Method: (§1) A standard procedure to measure the anti-microbial activity of substances was used (challenge tests). A suspension of test organisms (10^5 to 10^6 germs/ml) is inoculated into a recipient containing already the substance to be tested. Samples of the inoculated suspension are taken and the number of germs is measured thanks to the Agar plates method. Germ counts is performed at t=0, t=24 h after the inoculation, t=48 h after the inoculation, t=7 days after the inoculation, t=14 days after the inoculation.
(§2) Sterile water containing 8% w/w of treated and untreated carriers were each investigated.

[3] = tested on: Candida albicans ATCC 10231; experiment: challenge test, germ count by Agar plates method; type: cell-based; conditions: 8% aqueous suspension
Method: as §1, §2

[4] = tested on: Staphylococcus aureus ATCC 6538; experiment: challenge test, germ count by Agar plates method; type: cell-based; conditions: 8% aqueous suspension
Method: as §1, §2

[5] = tested on: Escheria coli ATCC8739; experiment: challenge test, germ count by Agar plates method; type: cell-based; conditions: 8% aqueous suspension
Method: as §1, §2

[6] = tested on: Aspergillus niger ATCC 16404; experiment: challenge test, germ count by Agar plates method; type: cell-based; conditions: 8% aqueous suspension
Method: as §1, §2

O=c1c(O)c(-c2ccc(O)c(O)c2)oc2cc(O)cc(O)c12 [Quercetin, 3,3′,4′,5,7-pentahydroxyflavone]
antioxidant action [1]: the greatest activity amongst the structures investigated

silver oxide [0.02% Ag2O]
Germs Number/ml after 24 h ([2]; 24 h after inoculation): 0 germs/ml
Germs Number/ml after 48 h ([2]; 48 h after inoculation): 0 germs/ml
Germs Number/ml after 7 d ([2]; 7 d after inoculation): 0 germs/ml
Germs Number/ml after 14 d ([2]; 14 d after inoculation): 0 germs/ml
Germs Number/ml after Start ([2]; t=0): 2.2 · 10^5 germs/ml
Germs Number/ml after 24 h ([3]; 24 h after inoculation): 8.3 · 10^2 germs/ml
Germs Number/ml after 48 h ([3]; 48 h after inoculation): 0 germs/ml
Germs Number/ml after 7 d ([3]; 7 d after inoculation): 0 germs/ml
Germs Number/ml after 14 d ([3]; 14 d after inoculation): 0 germs/ml
Germs Number/ml after Start ([3]; t=0): 9.0 · 10^2 germs/ml
Germs Number/ml after 24 h ([4]; 24 h after inoculation): 0 germs/ml
Germs Number/ml after 48 h ([4]; 48 h after inoculation): 0 germs/ml
Germs Number/ml after 14 d ([4]; 14 d after inoculation): 0 germs/ml
Germs Number/ml after Start ([4]; t=0): 2.7 · 10^6 germs/ml
Germs Number/ml after 24 h ([5]; 24 h after inoculation): 0 germs/ml
Germs Number/ml after 48 h ([5]; 48 h after inoculation): 0 germs/ml
Germs Number/ml after 7 d ([5]; 7 d after inoculation): 0 germs/ml
Germs Number/ml after 14 d ([5]; 14 d after inoculation): 0 germs/ml
Germs Number/ml after Start ([5]; t=0): 2.0 · 10^6 germs/ml
Germs Number/ml after 24 h ([6]; 24 h after inoculation): 3.5 · 10^5 germs/ml
Germs Number/ml after 48 h ([6]; 48 h after inoculation): 1.6 · 10^5 germs/ml
Germs Number/ml after 7 d ([6]; 7 d after inoculation): 1.0 · 10^5 germs/ml
Germs Number/ml after 14 d ([6]; 14 d after inoculation): 2.2 · 10^4 germs/ml
Germs Number/ml after Start ([6]; t=0): 4.5 · 10^5 germs/ml
